Values of other authors as cited in publication PMC5306265 (Investigational New Drugs, 2016).

Assays:
pERK = tested on: pERK; design: method as in PMID 18390968, PMID 24178622; settings: paired tumor biopsies; cited from earlier work
[1] = tested on: BRAF V600E/K-mutant melanoma; design: method as in PMID 22663011, PMID 22805292; settings: cited from earlier work

Compound	geometric mean pERK reduction (pERK) [%]	response rates [1]
Cn1cnc2c(F)c(Nc3ccc(Br)cc3Cl)c(C(=O)NOCCO)cc21 [selumetinib]	79	–
CC(=O)Nc1cccc(-n2c(=O)n(C3CC3)c(=O)c3c(Nc4ccc(I)cc4F)n(C)c(=O)c(C)c32)c1 [trametinib]	–	approximately 20%
